“Also recorded” adds a separate entry of the source.
Legend:
[1] = tested on: spontaneously hypertensive rats (SHR); assay: Mean arterial pressure and heart rate in conscious spontaneously hypertensive rats (IV and intragastric); format: in vivo, rat; conditions: for Maximum decrease at 20 mg/kg ig, HR / Maximum decrease at 20 mg/kg ig, MAP: day 2 of oral administration; for ED (100 b/min decrease) / ED (40 mmHg decrease): Rattus norvegicus, IV; for ED (100 b/min decrease): read-out: IV dose to decrease HR by 100 b/min; for ED (40 mmHg decrease): read-out: IV dose to decrease MAP by 40 mmHg
Experimental: The effects of compounds I and II were tested intravenously or intragastrically in conscious spontaneously hypertensive rats (SHR). The rats were anesthetized with ether and the left carotid artery and right jugular vein were cannulated with polyethylene tubing. The rats were allowed three to five hours recovery from anesthesia for the I.V. studies and 12 to 18 hours for the oral studies. Mean arterial pressure (MAP, in mm/Hg) and heart rate (HR, beats/min.) were measured from the artery; intravenous administration of compounds was performed by injection into the vein. Oral administration was performed by gastric intubation. Compounds were dissolved in DMSO for I.V. studies and injected in volumes of […] or less (N=5 per compound). Doses were 3 to 1,000 mg/kg. Compounds were dissolved in polyethylene glycol for oral administration and injected in volumes of 1 ml/kg at dose of 20 mg/kg/day for three days (N=3 to 6 per compound).
The resting MAP and HR for the SHR ranged between 160-200 mm Hg and 330/350 b/min., respectively.

adenosine A1 receptor = target: T1, adenosine A1 receptor (Rattus norvegicus, UniProt P25099); assay: Adenosine A1 receptor binding, inhibition of HPIA binding to crude plasma membranes
T1 construct: Crude plasma membranes were prepared; from tissue; host or cells: crude plasma membranes
T1 sequence (P25099 1-326): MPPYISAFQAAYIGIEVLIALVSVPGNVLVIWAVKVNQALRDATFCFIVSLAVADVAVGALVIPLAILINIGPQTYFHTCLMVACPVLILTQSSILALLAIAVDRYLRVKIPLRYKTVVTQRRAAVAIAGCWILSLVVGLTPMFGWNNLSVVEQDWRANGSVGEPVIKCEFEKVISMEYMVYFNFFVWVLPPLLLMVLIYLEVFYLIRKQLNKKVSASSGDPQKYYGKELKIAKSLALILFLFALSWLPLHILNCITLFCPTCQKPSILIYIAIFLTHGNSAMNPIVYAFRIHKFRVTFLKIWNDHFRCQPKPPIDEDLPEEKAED
Experimental: The binding potency of compound I, II and III to the adenosine Al receptor was measured according to the method of Schwabe, U. et al., Naunyn Schmeid. Arch. Pharmacol. 321:84, 1982. Crude plasma membranes were prepared and varying concentrations of compounds I, II or III were added to the membrane preparation in the presence of ^125 -N-p hydroxyphenyl isopropyladenosine (HPIA). The affinity of the compounds for the adenosine Al receptor was estimated from the concentrations necessary to inhibit the binding of HPIA by 50% (IC50).

[2] = tested on: PRA in Sprague Dawley rats with renal arteries ligated; assay: Plasma renin activity (PRA) in the bilateral renal artery ligated rat; format: in vivo; conditions: 1 mg/kg IV; for prevention of PRA increase, in words: 30 and 60 minutes; for Change in PRA at 30 minutes: 30 minutes after dosing; for Change in PRA at 60 minutes: 60 minutes after dosing
Experimental: Adenosine Al receptor stimulation will inhibit the release of renin from the kidney. A stimulus for the release of renin is renal ischemia. The ability of the compounds of the present invention to prevent an increase in PRA following renal ischemia was tested in rats with both renal arteries ligated. Sprague Dawley rats were anesthetized with ether and the renal arteries were ligated. Three to five hours after anesthesia, arterial blood was sampled and compounds I, II or III were administered in polyethylene glycol at 1 mg/kg I.V. At 30 and 60 minutes after administration, arterial blood was sampled for PRA measurement by the method of Sealy, J. E. et al., Cardiovasc. Med. 2:1079, 1977.

mice [3] = assay: Ataxia, rotating rod, in mice; format: in vivo, mouse; conditions: for Percent ataxic, 0.5 hour / Percent ataxic, 3 hour: 54 ± 12 mg/kg ip (pooled 32, 56, 75 mg/kg); for ataxia / motor toxicity compared to compound I, in words: ip, 0.5 or 3 hours
Experimental: (§1) Adenosine analogs tend to produce sedation and central nervous system depression which have prevented their therapeutic utility. The compounds of the invention, at doses which lower arterial pressure in the SHR, show no evidence of CNS depression. The ataxia produced by compounds of the present invention was measured in mice by injecting the compounds IP at doses of 32, 56, or 75 mg/kg in an aqueous suspension, n=7 per dose. The mice had previously been trained to remain on a rotating rod. After dosing, the percent of mice unable to remain on the rotating rod was determined. […] The mice were also observed at various time intervals for behavioral signs of toxicity.

mice [4] = assay: Behavioral signs of toxicity in mice; format: in vivo; parameters: key to Motor depression / Ptosis / Respiratory depression / Flaccidity / Loss of righting reflex: +: toxic symptom observed; +*: * = 2/7; +^#: ^# = 5/7; conditions: 75 mg/kg IP
Experimental: as §1

[5] = tested on: adenosine A1 receptor in the granular juxtaglomerular cells of the kidney; conditions: Federation Proceedings 44:879 & 1643, 1985; cited from earlier work
hypertensive models = conditions: Federation Proceedings 44:879 & 1643, 1985; cited from earlier work
central nervous system = assay: CNS toxicity / CNS depression, general statements; format: in vivo; conditions: summary statement

## OC[C@H]1O[C@@H](n2cnc3c(NCC(O)COc4cccc5ccccc45)ncnc32)[C@H](O)[C@@H]1O (mixture of isomers) [Compound I, N(6) [2 hydroxy-3-(1 naphthyloxy)propyl]-adenosine]
[1]
  Maximum decrease at 20 mg/kg ig, HR: 214 ± 14 b/min
  Maximum decrease at 20 mg/kg ig, MAP: 50 ± 13 mmHg
  ED (100 b/min decrease): 0.037 ± 0.0013 mg/kg
  ED (40 mmHg decrease): 0.052 ± 0.0013 mg/kg
Adenosine A1 receptor
  IC50: 1.2 nM
[2]
  prevention of PRA increase, in words: prevented to the same extent
  Change in PRA at 30 minutes: -2.9 ± 5.0 ngAI/ml/hr
  Change in PRA at 60 minutes: -9.4 ± 7.4 ngAI/ml/hr
Mice [3]
  Percent ataxic, 0.5 hour: 33 ± 10%
  Percent ataxic, 3 hour: 95 ± 5%
Mice [4]; 18-20 hours
  behavioral toxicity in words: still producing several of the toxic symptoms
Mice [4]; 18-20 hr
  Flaccidity: +*
  Motor depression: +
  Ptosis: +
  Respiratory depression: +
Mice [4]; 0.5 hr
  Motor depression: +
  Ptosis: +
  Respiratory depression: +
Mice [4]; 3 hours
  behavioral toxicity in words: also produced flaccidity and loss of writhing reflex
Mice [4]; 3 hr
  Flaccidity: +
  Loss of righting reflex: +
  Motor depression: +
  Ptosis: +
  Respiratory depression: +
[5]
  binding to the adenosine A1 receptor, in words: binds to the adenosine Al receptor
  inhibition of renin release into the plasma, in words: inhibit release of renin into the plasma
Hypertensive models
  arterial blood pressure and heart rate, in words: reducing arterial blood pressure and heart rate

## OC[C@H]1O[C@@H](n2cnc3c(NC[C@@H](O)COc4cccc5ccccc45)ncnc32)[C@H](O)[C@@H]1O [II, N-[2R-hydroxy-3-(1-naphthalenyloxy)propyl]-adenosine]
[1]
  Maximum decrease at 20 mg/kg ig, HR: 202 ± 24 b/min
  Maximum decrease at 20 mg/kg ig, MAP: 62 ± 7 mmHg
  ED (100 b/min decrease): 0.036 ± 0.0012 mg/kg
  ED (40 mmHg decrease): 0.047 ± 0.0012 mg/kg
Adenosine A1 receptor
  IC50: 1.2 nM
[2]
  prevention of PRA increase, in words: prevented to the same extent
  Change in PRA at 30 minutes: -11.7 ± 3.5 ngAI/ml/hr
  Change in PRA at 60 minutes: -13.8 ± 4.9 ngAI/ml/hr
Mice [3]
  Percent ataxic, 0.5 hour: 14 ± 8%
  Percent ataxic, 3 hour: 48 ± 21%
  ataxia / motor toxicity compared to compound I, in words: less motor toxicity than compound I; also recorded: less toxic than compound I with regard to ataxia; also recorded: less ataxia at 0.5 or 3 hours as compared to compound I
Mice [4]; 18-20 hours
  behavioral toxicity in words: still producing several of the toxic symptoms
Mice [4]; 18-20 hr
  Flaccidity: +
  Motor depression: +
  Ptosis: +
  Respiratory depression: +
Mice [4]; 0.5 hr
  Motor depression: +
  Ptosis: +
  Respiratory depression: +
Mice [4]; 3 hr
  Motor depression: +
  Ptosis: +
  Respiratory depression: +
Mice [4]; 24 hours
  behavioral toxicity in words: still producing toxic symptoms
Mice [4]; 24 hr
  Motor depression: +^#
  Ptosis: +^#
  Respiratory depression: ^#
Central nervous system
  central nervous system toxicity, comparison in words: less central nervous system toxicity than the S diastereomer; also recorded: less central nervous system toxicity than the racemic mixture

## OC[C@H]1O[C@@H](n2cnc3c(NC[C@H](O)COc4cccc5ccccc45)ncnc32)[C@H](O)[C@@H]1O [III, N-[2S-hydroxy-3[1-naphthalenyloxy)propyl]-adenosine]
[1]
  Maximum decrease at 20 mg/kg ig, HR: 177 ± 19 b/min
  Maximum decrease at 20 mg/kg ig, MAP: 50 ± 14 mmHg
  ED (100 b/min decrease): 0.031 ± 0.0014 mg/kg
  ED (40 mmHg decrease): 0.033 ± 0.0012 mg/kg
Adenosine A1 receptor
  IC50: 1.2 nM
[2]
  prevention of PRA increase, in words: prevented to the same extent
  Change in PRA at 30 minutes: -6.6 ± 4.0 ngAI/ml/hr
  Change in PRA at 60 minutes: -6.3 ± 3.9 ngAI/ml/hr
Mice [3]
  Percent ataxic, 0.5 hour: 14 ± 0%
  Percent ataxic, 3 hour: 57 ± 8%
  ataxia / motor toxicity compared to compound I, in words: less motor toxicity than compound I; also recorded: less ataxia at 0.5 or 3 hours as compared to compound I
Mice [4]; 18-20 hours
  behavioral toxicity in words: no toxicity was observed
Mice [4]; 0.5 hr
  Motor depression: +
  Ptosis: +
  Respiratory depression: +
Mice [4]; 3 hr
  Motor depression: +
  Ptosis: +
  Respiratory depression: +
Mice [4]; mice
  behavioral toxicity, overall comparison in words: substantially less toxic than compounds I and II; also recorded: less CNS toxic than compound II with regard to behavioral toxicity

— patent US4992535A, “Methods of making novel R and S diastereomers of N^6 -[(2-hydroxypropyl)aryl]adenosines” (G. D. Searle & Co., priority 1988, dated 1991)
